Legend:
Type in all cases: cell-based, human
[1] = tested on: PGC1α, PRDM16, PPARα and DIO2; assay: Real-time quantitative PCR of thermogenesis genes after 8-Br-cAMP; conditions: after 48 hours, D20 adipocytes, vs basal
Experimental: Total RNAs were extracted using the NucleoSpin RNA kit (Macherey Nagel) according to the manufacturer's recommendations. The concentration of total RNAs extracted and their contamination by solvents or salts were evaluated by microspectrophotometry (Nanodrop). Reverse transcription was carried out using the High Capacity cDNA Reverse Transcription Kit (Applied Biosystems). Quantitative PCR was then carried out by adding 2 μL of cDNA diluted 10 times, 10 μL of SYBR Green I PCR mix (Roche Diagnostics, including DNA polymerase, dNTPs, 3 mM MgCl2 and SYBR Green fluorescent probe), 0.2 μM sense primer and 0.2 μM antisense primer (Table 2 below). The reference gene GAPDH was used to normalize the expression of the genes of interest.
(§1) The adipocytes were optionally treated for 6 hours with 10^−5 M isoproterenol (Sigma), then the protein samples were collected. For a longer stimulation, the adipocytes were treated with a non-metabolizable cAMP analogue, 8-Br-cAMP (Sigma), for 48 hours.

beige adipocytes = assay: MitoTracker staining of adipocytes after 8-Br-cAMP; conditions: after 48 hours, vs basal
Experimental: as §1
Living cells at D20 of differentiation were incubated with 1 μM MitoTracker® Red CMXRos (Life Technologies®) for 45 minutes in the dark at 37° C., 5% CO2. After rinsing twice with PBS, the cells were fixed with 3% PFA for 15 minutes at room temperature. The preparation was then incubated for 15 minutes with 1 ng/mL BODIPY 493/503 (Molecular Probes®, D-3922) then rinsed 3 times with PBS before being incubated for 5 minutes in DAPI (4′-6-diamidino-2-phenylindole, VWR). After applying the mounting medium (Fluoromount-G™, Southern Biotech), the cells were observed using a confocal microscope (Leica).

[2] = tested on: insulin receptor (IR) and AKT/PKB; assay: Short insulin treatment of adipocytes derived from iPS cells, phospho-specific Western blot; conditions: adipocytes after 20 days of differentiation
Experimental: The adipocytes were lysed in a suitable volume of lysis buffer (50 mM Tris pH 7.4, 0.27 M sucrose, 1 mM Na-orthovanadate pH 10, 1 mM EDTA, 1 mM EGTA, 10 mM (3-glycerophosphate, 50 mM NaF, 5 mM pyrophosphate, 1% (w/v) Triton X-100, 0.1% (w/v) 2-β-mercaptoethanol, and protease inhibitors). The total lysates were centrifuged (15,000 g, 4° C. for 10 minutes) then stored at −80° C. until use. The protein concentrations were determined using the Bradford method with bovine albumin as the standard. The samples underwent SDS/PAGE migration on polyacrylamide gels and then were transferred onto nitrocellulose membranes (Amersham Biosciences), blocked for 2 hours at room temperature in TBS-T buffer (50 mM Tris-HCl pH 7.6, 150 mM NaCl, 0.1% (v/v) Tween-20) supplemented with 5% (w/v) skimmed milk or BSA, and incubated with the various antibodies specific to the protein of interest (Table 1 above).
The nitrocellulose membranes were rinsed 3×5 minutes in TBS-T buffer before being incubated with the secondary antibody coupled to peroxidase. The signals were detected using chemiluminescence (Pierce-Perbio Biotechnologies) by exposure on autoradiographic film (Kodak).

Nc1ncnc2c1nc(Br)n2[C@@H]1O[C@@H]2COP(=O)(O)O[C@H]2[C@H]1O [8-Br-cAMP]
expression of genes involved in thermogenesis (PGC1α, PRDM16, PPARα, DIO2) [1]: increase | number of mitochondria in the beige adipocytes (beige adipocytes): increase in the number of mitochondria

insulin
phosphorylation of the insulin receptor (IR) subunit and its target AKT [2]: strong phosphorylation

From patent US20170211043A1, “METHOD FOR IN VITRO PRODUCTION OF ADIPOCYTE PROGENITORS AND ADIPOCYTES” (UNIVERSITE PIERRE ET MARIE CURIE (PARIS 6), priority 2014, published 2017)
